# Measured values published in patent publication US9789096B2, “Methods and compositions for selective and targeted cancer therapy” (Board of Regents of the University of Texas System, priority 2013, dated 2017).
# Like-named read-outs stand apart in the source and are kept apart here.
# Columns and labels:
# HCC44 = assay: Cell viability dose-response, HCC44; type: cell-based, human; conditions: Homo sapiens
# In short: (§1)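 IC50 values derive from 12-point, 3-fold dilution curves starting at 50 micromolar, run in duplicate. ATP content was read by CellTiter-Glo after 4 days of compound treatment. Cells were plated at 15% confluence in RPMI-1640 containing 5% FBS and 2 mM L-glutamine.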
# HCC4017 = assay: Cell viability dose-response, HCC4017; type: cell-based, human
# Procedure: (§2) FIG. 6A. […] Cell viability is plotted vs. compound concentration. Compound was added to cells plated at 15% confluence in 96-well plates in RPMI-1640 media supplemented with 5% Fetal Bovine Serum and 2 mM L-Glutamine. After 4 days of incubation, ATP levels were measured using Cell Titer Glo (Promega). Data are presented as the average of 2 replicates ±SEM.
# (§3) Selectivity may be measured by the half maximal inhibitory concentration (IC50), which, as used herein, is a measure of the effectiveness of a compound in killing cells. This quantitative measure indicates how much of a particular compound is needed to kill a particular cell population by half (e.g., as indicated by the amount of ATP). […] The IC50 can be determined by constructing a dose-response curve. The lower the IC50, the higher the potency, and the greater the difference between IC50 values for different cell lines (e.g., sensitive lines vs. insensitive lines, and sensitive lines vs. normal lines) the greater the selectivity. […]
# (§4) With this information, we synthesized and tested a series of small molecules derived in conception from the oxalamide and chromone scaffold including N-acyl ureas, as shown in Tables 6-8. Each compound was tested in a 12-point dose-response study starting at 50 micromolar and decreasing in 3-fold increments to sub-nanomolar concentrations, in duplicate. Additionally, one or more additional cell line was tested in the same way.
# HBEC30KT = assay: Cell viability (ATP, Cell Titer Glo, 4 days), HBEC30KT; type: cell-based, human
# Procedure: as §2, §3
# HCC95 = assay: Cell viability dose-response, HCC95; type: cell-based; conditions: Homo sapiens
# Procedure: as §2, §3, §4
# H460 = assay: Cell viability dose-response, H460; type: cell-based; conditions: Homo sapiens, NCI-H460
# Procedure: as §2, §3, §4
# H2009 = assay: Cell viability dose-response, H2009; type: cell-based, human; conditions: Homo sapiens, NCI-H2009
# In short: as §1
# H1993 = assay: Cell viability dose-response, H1993; type: cell-based; conditions: Homo sapiens, NCI-H1993
# Procedure: as §2, §3, §4
# H1155 = assay: Cell viability dose-response, H1155; type: cell-based; conditions: Homo sapiens, NCI-H1155
# Procedure: as §2, §3, §4
# H2073 = assay: Cell viability dose-response, H2073; type: cell-based, human; conditions: Homo sapiens
# In short: as §1
# H2122 = assay: Cell viability dose-response, H2122; type: cell-based, human
# In short: (§5)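 Viability read as total ATP (Cell Titer Glo) following 4 days' compound exposure, with IC50 derived from dose-response curves. Duplicate 12-point series, top concentration 50 micromolar with 3-fold steps, on cells seeded at 15% confluence in RPMI-1640, 5% FBS, 2 mM L-glutamine.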
# H1395 = assay: Cell viability dose-response, H1395; type: cell-based; conditions: Homo sapiens, NCI-H1395
# Procedure: as §2, §3, §4
# H1819 = assay: Cell viability dose-response, H1819; type: cell-based, human
# In short: as §5
# HCC366 = assay: Cell viability dose-response, HCC366; type: cell-based; conditions: Homo sapiens
# Procedure: as §2, §3, §4
# [1] = HCC44, Tables 3 and 4, read-out: IC50 (uM) vs indicated non-small cell lung cancer cell line HCC44
# [2] = Tables 3 and 4, read-out: IC50 (uM) vs indicated non-small cell lung cancer cell line HCC95
# [3] = Tables 3 and 4, read-out: IC50 (uM) vs indicated non-small cell lung cancer cell line H460
# [4] = Tables 3 and 4, read-out: IC50 (uM) vs indicated non-small cell lung cancer cell line H2009
# [5] = Tables 3 and 4, read-out: IC50 (uM) vs indicated non-small cell lung cancer cell line H1993
# [6] = Tables 3 and 4, read-out: IC50 (uM) vs indicated non-small cell lung cancer cell line H1155
# [7] = NCI-H2073, Tables 3 and 4, read-out: IC50 (uM) vs indicated non-small cell lung cancer cell line H2073
# [8] = Homo sapiens, NCI-H2122, Tables 3 and 4, read-out: IC50 (uM) vs indicated non-small cell lung cancer cell line H2122
# [9] = Tables 3 and 4, read-out: IC50 (uM) vs indicated non-small cell lung cancer cell line H1395
# [10] = Homo sapiens, NCI-H1819, Tables 3 and 4, read-out: IC50 (uM) vs indicated non-small cell lung cancer cell line H1819
# [11] = Tables 3 and 4, read-out: IC50 (uM) vs indicated non-small cell lung cancer cell line HCC366
# [12] = Homo sapiens, HCC4017, Tables 3 and 4, read-out: IC50 (uM) vs indicated non-small cell lung cancer cell line HCC4017
# [13] = Homo sapiens, Tables 3 and 4, read-out: HBEC30KT IC50
# [14] = HCC44, 12-point dose-response starting at 50 micromolar, 3-fold increments, in duplicate, read-out: toxicity data, HCC44
# [15] = Homo sapiens, HCC4017, 12-point dose-response starting at 50 micromolar, 3-fold increments, in duplicate, read-out: toxicity data, HCC4017
# [16] = Homo sapiens, 12-point dose-response starting at 50 micromolar, 3-fold increments, in duplicate, read-out: toxicity data, HBEC30KT
# [17] = 12-point dose-response starting at 50 micromolar, 3-fold increments, in duplicate, read-out: toxicity data, HCC95
# [18] = 12-point dose-response starting at 50 micromolar, 3-fold increments, in duplicate, read-out: toxicity data, H460
# [19] = 12-point dose-response starting at 50 micromolar, 3-fold increments, in duplicate, read-out: toxicity data, H2009
# [20] = 12-point dose-response starting at 50 micromolar, 3-fold increments, in duplicate, read-out: toxicity data, H1993
# [21] = 12-point dose-response starting at 50 micromolar, 3-fold increments, in duplicate, read-out: toxicity data, H1155
# [22] = NCI-H2073, 12-point dose-response starting at 50 micromolar, 3-fold increments, in duplicate, read-out: toxicity data, H2073
# [23] = Homo sapiens, NCI-H2122, 12-point dose-response starting at 50 micromolar, 3-fold increments, in duplicate, read-out: toxicity data, H2122
# [24] = 12-point dose-response starting at 50 micromolar, 3-fold increments, in duplicate, read-out: toxicity data, H1395
# [25] = Homo sapiens, NCI-H1819, 12-point dose-response starting at 50 micromolar, 3-fold increments, in duplicate, read-out: toxicity data, H1819
# [26] = 12-point dose-response starting at 50 micromolar, 3-fold increments, in duplicate, read-out: toxicity data, HCC366
Structure (SMILES),IC50 (HCC44; [1]) [µM],IC50 (HCC95; [2]) [µM],IC50 (H460; [3]) [µM],IC50 (H2009; [4]) [µM],IC50 (H1993; [5]) [µM],IC50 (H1155; [6]) [µM],IC50 (H2073; [7]) [µM],IC50 (H2122; [8]) [µM],IC50 (H1395; [9]) [µM],IC50 (H1819; [10]) [µM],IC50 (HCC366; [11]) [µM],IC50 (HCC4017; [12]) [µM],IC50 (HBEC30KT; [13]) [µM],other results
O=C(Nc1cccc(NC(=O)c2sc3ccccc3c2Cl)c1)c1cccc(Cl)c1 [SW023441],32,14,48,9.4,11,29,6.2,0.39,10.5,16.4,23,–,–,"IC50 (HCC4017; Tables 3 and 4, read-out: IC50 (uM) vs indicated non-small cell lung cancer cell line HCC4017): 18 µM; IC50 (HBEC30KT; Tables 3 and 4, read-out: HBEC30KT IC50): 30 µM"
COc1ccc2nc(NC(=O)c3ccc(OCc4ccccc4)cc3)sc2c1 [SW202773-1],0.122,0.163,0.157,16.6,21.7,23.6,0.268,0.0431,25.9,42.9,41.8,21.1,24.9,–
COc1ccc(C(=O)c2ccc(NC(=O)c3sc4ccccc4c3Cl)cc2)cc1 [SW202855-1],25.4,9.84,28.8,13.9,17.8,46.1,36.2,18.3,28.4,32,49,15.7,24.3,–
COc1ccc(CCNC(=O)C(=O)Nc2ccc(C)c(C)c2)cc1 [SW027949],–,–,–,–,–,–,–,–,–,–,–,–,–,IC50 (HCC44; [14]): ≥ 50 µM; IC50 (HCC4017; [15]): ≥ 50 µM; IC50 (HBEC30KT; [16]): 41.5 µM; IC50 (HCC95; [17]): 0.17 µM; IC50 (H460; [18]): 1.31 µM; IC50 (H2009; [19]): ≥ 50 µM; IC50 (H1993; [20]): 50 µM; IC50 (H1155; [21]): 50 µM; IC50 (H2073; [22]): ≥ 50 µM; IC50 (H2122; [23]): 0.7 µM; IC50 (H1395; [24]): 50 µM; IC50 (H1819; [25]): ≥ 50 µM; IC50 (HCC366; [26]): 50 µM
O=C(Nc1nc2ccccc2s1)c1cccnc1 [SW006981],63.7,110,180,325,21.5,95,12.5,0.26,51,50,85,76,272,–
NC(=O)c1c(NC(=O)c2sc3ccccc3c2Cl)sc2c1CCCCC2 [SW155113],27,100,29,32,8.1,14.5,6,0.36,13.4,14,22.5,23,33,–
O=C(Nc1nc2ccccc2s1)c1ccc(-c2ccccc2)cc1 [SW001811],165,58,450,125,85,125,–,0.7,185,59,220,120,348,–
COc1ccc(CCNC(=O)C(=O)Nc2ccc(Cl)cc2)cc1 [SW027951],–,–,–,–,–,–,–,–,–,–,–,–,–,IC50 (HCC44; [14]): ≥ 50 µM; IC50 (HCC4017; [15]): ≥ 50 µM; IC50 (HBEC30KT; [16]): 50 µM; IC50 (HCC95; [17]): 0.09 µM; IC50 (H460; [18]): 1.34 µM; IC50 (H2009; [19]): ≥ 50 µM; IC50 (H1993; [20]): 50 µM; IC50 (H1155; [21]): 50 µM; IC50 (H2073; [22]): ≥ 50 µM; IC50 (H2122; [23]): 0.15 µM; IC50 (H1395; [24]): 50 µM; IC50 (H1819; [25]): ≥ 50 µM; IC50 (HCC366; [26]): 50 µM
O=C(c1ccccc1)c1ccc(NC(=O)c2sc3ccccc3c2Cl)cc1 [SW025780],64,7.7,46,60,31,33,0.08,0.007,99,27,248,56,51,–
COc1ccc2nc(NC(=O)c3ccc(N)cc3)sc2c1 [SW001286],3,2,0.4,22,27,25,0.3,0.048,35,24,35,35,130,"IC50 (H2122; Homo sapiens, NCI-H2122, Table 9, competitor, read-out: IC50 to H2122 cells): 0.04 µM"
O=C(Nc1nnc(C2CCCCC2)s1)c1sc2ccccc2c1Cl [SW173997],23.1,23.8,44.5,21.5,16.9,23.8,11.4,0.27,41.3,48.5,40.9,24,–,–
COc1ccc(CCNC(=O)C(=O)Nc2cccc(Br)c2)cc1 [SW027952],–,–,–,–,–,–,–,–,–,–,–,–,–,"IC50 (HCC44; [14]): ≥ 50 µM; IC50 (HCC4017; [15]): ≥ 50 µM; IC50 (HBEC30KT; [16]): 19.8 µM; IC50 (HCC95; [17]): 0.24 µM; IC50 (H460; [18]): 50 µM; IC50 (H2009; [19]): 11.3 µM; IC50 (H1993; [20]): 50 µM; IC50 (H1155; [21]): 50 µM; IC50 (H2073; [22]): 17.5 µM; IC50 (H2122; 12-point dose-response starting at 50 micromolar, 3-fold increments, in duplicate, read-out: toxicity data, H2122): 1.04 µM; IC50 (H1395; [24]): 50 µM; IC50 (H1819; 12-point dose-response starting at 50 micromolar, 3-fold increments, in duplicate, read-out: toxicity data, H1819): ≥ 50 µM; IC50 (HCC366; [26]): 50 µM"
